Source: ChEMBL document CHEMBL1201862, “PubChem BioAssay data set” (2004)
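Compound exposure: 48 hours, 5 concentrations, 96-well plates. GI50 marks 50% less growth.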 Calls of active or inactive are those of the source. No stated cut-off is given here; in the data, active = GI50 up to about 1.1 µM and inactive = higher.

Columns and labels:
Assay in all cases: NCI anticancer screen, dose series, 48 h
CAKI-1 = test system: CAKI-1
DU-145 = test system: DU-145
HCT-116 = test system: HCT-116
HCT-15 = test system: HCT-15
HOP-62 = test system: HOP-62
K562 = test system: K562
KM12 = test system: KM12
NCI-H460 = test system: NCI-H460
NCI-H522 = test system: NCI-H522
OVCAR-3 = test system: OVCAR-3
OVCAR-4 = test system: OVCAR-4
OVCAR-5 = test system: OVCAR-5
OVCAR-8 = test system: OVCAR-8
RXF 393 = test system: RXF 393
SK-MEL-28 = test system: SK-MEL-28
SN12C = test system: SN12C
SW-620 = test system: SW-620
T47D = test system: T47D
UACC-257 = test system: UACC-257
UO-31 = test system: UO-31

Structure (SMILES) | GI50 (CAKI-1) | GI50 (DU-145) | GI50 (HCT-116) | GI50 (HCT-15) [µM] | GI50 (HOP-62) | GI50 (K562) | GI50 (KM12) | GI50 (NCI-H460) | GI50 (NCI-H522) | GI50 (OVCAR-3) | GI50 (OVCAR-4) | GI50 (OVCAR-5) | GI50 (OVCAR-8) | GI50 (RXF 393) | GI50 (SK-MEL-28) | GI50 (SN12C) | GI50 (SW-620) | GI50 (T47D) | GI50 (UACC-257) | GI50 (UO-31)
O=C(N/N=C\c1cccc(O)c1)c1ccncc1 | > 100 µM (inactive) | > 100 µM (inactive) | > 100 µM (inactive) | > 100 | > 100 µM (inactive) | > 100 µM (inactive) | > 100 µM (inactive) | > 100 µM (inactive) | > 100 µM (inactive) | > 100 µM (inactive) | > 100 µM (inactive) | > 100 µM (inactive) | > 100 µM (inactive) | > 100 µM (inactive) | > 100 µM (inactive) | > 100 µM (inactive) | > 100 µM (inactive) | > 100 µM (inactive) | > 100 µM (inactive) | > 100 µM (inactive)
CN(Cc1cccc2ccccc12)Cc1cccc2ccccc12 | 50.1 µM (inactive) | 54 µM (inactive) | 13.4 µM (inactive) | 22.2 | 45.6 µM (inactive) | 35.1 µM (inactive) | 41.5 µM (inactive) | 40.6 µM (inactive) | 19 µM (inactive) | 44.4 µM (inactive) | 36.1 µM (inactive) | 43 µM (inactive) | 70.5 µM (inactive) | 47.1 µM (inactive) | 35.2 µM (inactive) | 36.6 µM (inactive) | 20.6 µM (inactive) | 21 µM (inactive) | 50.1 µM (inactive) | 36.6 µM (inactive)
COC(=O)C1=C(O)C(C(=O)OC)C2CC(=O)CC1C2(C)C (stereo not given) | > 100 µM (inactive) | > 100 µM (inactive) | > 100 µM (inactive) | > 100 | > 100 µM (inactive) | > 100 µM (inactive) | > 100 µM (inactive) | > 100 µM (inactive) | > 100 µM (inactive) | > 100 µM (inactive) | > 100 µM (inactive) | > 100 µM (inactive) | > 100 µM (inactive) | > 100 µM (inactive) | > 100 µM (inactive) | > 100 µM (inactive) | > 100 µM (inactive) | > 100 µM (inactive) | > 100 µM (inactive) | > 100 µM (inactive)
